Results reported in PubChem BioAssay AID588401 (Johns Hopkins Ion Channel Center, 2011).
Activity calls are given as the source filed them.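 The calls were made as follows: active = blocks the choline transporter at some tested dose and yields a fitted dose response curve; inconclusive = no clear call, values can overlap the other calls; inactive = no blocking at any dose or no curve.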

target: High affinity choline transporter 1 (Homo sapiens) (UniProt Q9GZV3); assay: CHT inhibitors, dose response, cell-based, 10-point CRC, membrane potential dye (AID 588401); settings: HEK293-CHT, choline-induced depolarization, at 25 µM (top of the series), cells express LV-AA mutant CHT
Sequence (Q9GZV3 whole entry, looked up): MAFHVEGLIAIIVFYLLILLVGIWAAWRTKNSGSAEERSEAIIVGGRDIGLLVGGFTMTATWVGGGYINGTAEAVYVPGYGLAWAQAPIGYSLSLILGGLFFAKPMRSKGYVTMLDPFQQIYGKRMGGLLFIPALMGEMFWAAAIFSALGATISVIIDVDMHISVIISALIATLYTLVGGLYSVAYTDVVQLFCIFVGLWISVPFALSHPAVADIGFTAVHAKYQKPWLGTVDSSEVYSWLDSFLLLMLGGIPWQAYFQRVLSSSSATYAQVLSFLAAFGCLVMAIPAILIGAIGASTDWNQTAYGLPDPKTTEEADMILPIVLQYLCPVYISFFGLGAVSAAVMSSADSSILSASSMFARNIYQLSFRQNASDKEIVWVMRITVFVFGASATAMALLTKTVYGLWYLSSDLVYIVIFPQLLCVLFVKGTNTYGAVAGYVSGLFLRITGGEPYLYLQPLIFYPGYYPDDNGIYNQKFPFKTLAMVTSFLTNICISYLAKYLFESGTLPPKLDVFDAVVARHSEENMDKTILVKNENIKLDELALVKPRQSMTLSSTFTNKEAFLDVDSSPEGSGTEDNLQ

| SMILES | inhibition (negative values = inhibition) |
| --- | --- |
| Cc1nn2c(N3CCN(C)CC3)c3c(nc2c1-c1ccccc1)CCCC3 | inactive |
| COc1ccc(-c2csc(Cc3nnc4n3CCCCC4)n2)cc1 | inactive |
| COc1ccc(-n2c(=S)[nH]c3cc(C(=O)NCCCN4CCOCC4)ccc3c2=O)cc1 | inactive |
| c1ccc(CCNc2c3c(nc4ncnn24)CCC3)cc1 | inactive |
| CCOCCCNC(=O)/C(C#N)=C/c1ccc([N+](=O)[O-])o1 | inactive |
| O=C(C1CCCN(c2ncnc3c2nc2n3CCCCC2)C1)N1CCN(c2ccc(Cl)cc2)CC1 (centres undefined) | inactive |
| CCc1ccc2oc(C(=O)NCC(c3ccc(OC)cc3)N3CCCCC3)c(C)c2c1 (centres undefined) | inactive |
| CN(Cc1cccs1)c1ncnc2sccc12 | inactive |
| N#CC(C#N)=C(Nc1ccc(F)cc1)SCc1cccc(F)c1 | inactive |
| CCOC(=O)c1cccc(NC(=O)CSc2nnc(C)n2Cc2ccccc2)c1 | inactive |
| Oc1c(Cl)cc(Cl)cc1C=Nc1ccc2c(c1)OCCO2 | inactive |
| COC(=O)/C(=C/c1c[nH]c2ccccc12)[N+](=O)[O-] | inactive |
| Cc1ccccc1CCNCc1cc2cccc(C)c2[nH]c1=O | inactive |
| Cc1ccc(-c2cccc(CN3CCN(C(C)C)C(CCO)C3)c2)o1 (centres undefined) | inactive |
| Cc1cccc(C(=O)Nc2cccc(OCC(=O)O)c2)c1 | inactive |
| CCOC(=O)c1c(NC(=O)C2C3C=CC(C3)C2C(=O)O)sc2c1CCC(CC)C2 (centres undefined) | inactive |
| Cc1cc(CN(C)C(=O)c2cc(COc3ccc(F)cc3Cl)on2)n[nH]1 | inactive |
| CC1CCCCC1NC(=S)Nc1ccc(SC(F)F)cc1 (centres undefined) | inactive |
| O=C(Nc1ccn(Cc2ccccc2)n1)c1n[nH]c([N+](=O)[O-])c1Cl | inactive |
| O=S(=O)(c1ccc(N2CCCC2)nc1)N1CCCC1 | inactive |

| SMILES | inhibition (negative values = inhibition) |
| --- | --- |
| C/C(=N\NS(=O)(=O)c1ccc(Cl)c([N+](=O)[O-])c1)c1cc2ccccc2o1 | inactive |
| N=c1n(Cc2ccccc2)c2ccccc2n1CC(O)COc1ccccc1 (centres undefined) | inactive |
| Oc1cccc(C(O)CNCc2ccc(OCc3ccc(Cl)cc3Cl)cc2)c1 (centres undefined) | inactive |
| CC1(C)CC2CC(C)(CN2c2ncnc3ccccc23)C1 (centres undefined) | inactive |
| O=C(O)C1CCN(c2nc(-c3ccccc3)nc3c2oc2ccccc23)CC1 | inactive |
| Cc1ccc(C)c(OCC(=O)Nc2ccc(S(=O)(=O)Nc3ccccn3)cc2)c1C | inactive |
| CC(Oc1ccccc1Cl)C(=O)Nc1ccc(S(=O)(=O)Nc2nccs2)cc1 (centres undefined) | inactive |
| Cc1cccc(C(=O)NNC(=S)NC(=O)c2ccccc2)c1 | inactive |
| Cc1ccc(C(=O)NC2CCCC(C)C2C)cc1S(=O)(=O)N1CCCCC1 (centres undefined) | inactive |
| CC1CCCCC1NC(=O)Cn1nnc(-c2ccc(Cl)cc2)n1 (centres undefined) | inactive |
| CCc1cc2c(NCc3ccco3)ncnc2s1 | inactive |
| CC1(C)CC(=O)C=C(Nc2cccc(Cl)c2Cl)C1 | inactive |
| COc1ccc(C(=O)NC(Cc2ccc(OC(=O)c3ccc(OC)cc3)cc2)C(=O)O)cc1 (centres undefined) | inactive |
| Fc1ccc(NC(=S)Nc2ccc(F)c(Cl)c2)cc1Cl | inactive |
| CC1CCCCC1NC(=O)c1c(O)nc2ccccn2c1=O (centres undefined) | inactive |
| COc1ccccc1Nc1nnc(SCC2CCCCO2)s1 (centres undefined) | inactive |
| COc1cc(NC(=O)c2csc(-c3ccncc3)n2)cc(C(=O)Nc2cccc(C(F)(F)F)c2)c1 | inactive |
| O=C(c1ccc(Cl)c(S(=O)(=O)N2CCCC2)c1)N1CCN(c2ccccc2)CC1 | inactive |
| C[C@H](NC(=O)OC(C)(C)C)c1nnc(SCC(=O)c2ccc(Cl)cc2)o1 | inactive |
| CCOC(=O)c1nc(NNC(=O)c2ccc([N+](=O)[O-])cc2)sc1C | inactive |

| SMILES | inhibition (negative values = inhibition) |
| --- | --- |
| CCS(=O)(=O)C1=NN2C(=N)/C(=C\c3ccc(OS(=O)(=O)c4ccccc4)cc3)C(=O)N=C2S1 | inactive |
| CC(SCc1ccccc1)C(=O)N/N=C/c1ccc(OCC(=O)NCc2ccco2)cc1 (centres undefined) | inactive |
| Cc1ccc(-n2cc(CN3CCN(Cc4nccn4C)CC3)c(-c3ccc(F)cc3)n2)cc1 | inactive |
| COc1cccc(/C=C2\SC(=S)N(NS(=O)(=O)c3ccccc3)C2=O)c1OC | inactive |
| NC(=S)N/N=C1/CCSc2ccc3ccccc3c21 | inactive |
| CCOC(=O)C1CCN(Cc2c(O)c3ccccc3oc2=O)CC1 | inactive |
| COc1ccc(OC)c(/C=C2\SC(=S)N(NS(=O)(=O)c3ccccc3)C2=O)c1 | inactive |
| CCN1CCN(CCNC(=O)c2ccc3nc(-c4cccc(C)c4)c(-c4cccc(C)c4)nc3c2)CC1 | inactive |
| COc1cc(CNc2ccc(N3CCCCC3)cc2)ccc1OCC(=O)NC(C)(C)C | inactive |
| O=C(Nc1ccccc1C(=O)NCCCN1CCOCC1)c1ccc(F)cc1 | inactive |
| O=[N+]([O-])c1ccc(S(=O)(=O)Nc2nc(-c3ccccc3)cs2)cc1 | inactive |
| CC#CCN(CC#CC)S(=O)(=O)c1ccc(-n2cnnn2)c(OC)c1 | inactive |
| O=C(CSc1nnc(-c2ccncc2)n1Cc1ccco1)c1ccc(Cl)cc1 | inactive |
| O=C(CSc1nc2ccccc2[nH]1)c1ccc2c(c1)OCO2 | inactive |
| CCCCc1cc(O)c(CCCC)c(O)c1 | inactive |
| CCCN(CCC)c1nc(N(CCC)CCC)[nH]c(=O)n1 | inactive |
| COc1ccc(C(C(=O)NC2CCCCC2)N(C(=O)c2ccco2)c2ccccc2C(C)=O)cc1OC (centres undefined) | inactive |
| CCCc1ccc(OCc2ccc(C(=O)NCc3cccnc3)o2)c(OC)c1 | inactive |

same assay, conditions: HEK293-CHT, choline-induced depolarization, cells express LV-AA mutant CHT

| SMILES | IC50 [µM] |
| --- | --- |
| CC(C)c1nnc(NC(=O)c2nc(S(=O)(=O)Cc3ccccc3)ncc2Cl)s1 | 4.47 |
